# Data as given in patent publication US7767659B2, “Synthesis of naturally occurring ecteinascidins and related compounds” (Pharma Mar, S.A., priority 2002, dated 2010).
# Like-named read-outs stand apart in the source and are kept apart here.
# What was measured:
# DU-145 = experiment: Inhibition of cells growth by colorimetric assay (SRB); settings: Homo sapiens, DU-145, 48 h; for GI50: read-out: GI50 DU145; for CC50: read-out: LC50 DU145; for IC (TGI): read-out: TGI DU145
# Outline: (§1)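 Colorimetric SRB read (490 nm) on triplicate wells after 48 h at 37 °C, 5% CO2. Dose range 10 to 10^−8 μg/ml; 5×10^3 cells/well pre-attached 18 h.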
# LoVo-Dox = experiment: as above; settings: Homo sapiens, 48 h
# Outline: as §1
# HeLa-APL = experiment: as above; settings: Homo sapiens, 48 h
# Outline: as §1
# IGROV-1 = experiment: as above; settings: Homo sapiens, IGROV-1, 48 h
# Outline: as §1
# SK-BR-3 = experiment: as above; settings: Homo sapiens, SK-BR-3, 48 h
# Outline: as §1
# PANC-1 = experiment: as above; settings: Homo sapiens, PANC-1, 48 h
# Outline: as §1
# SK-MEL-28 = experiment: as above; settings: Homo sapiens, SK-MEL-28, 48 h; for GI50: read-out: GI50 MEL-28; for CC50: read-out: LC50 MEL-28; for IC (TGI): read-out: TGI MEL-28
# Outline: as §1
# K-562 = experiment: as above; settings: Homo sapiens, K562, 48 h
# Outline: as §1
# IGROV-ET = experiment: as above; settings: Homo sapiens, 48 h
# Outline: as §1
# HeLa = experiment: as above; settings: Homo sapiens, HeLa, 48 h
# Outline: as §1
# LNCaP = experiment: as above; settings: Homo sapiens, LNCaP, 48 h; for GI50: read-out: GI50 LNCAP; for CC50: read-out: LC50 LNCAP; for IC (TGI): read-out: TGI LNCAP
# Outline: as §1
# A-549 = experiment: cells; settings: Homo sapiens, A549, 48 h; for GI50: read-out: GI50 A549; for CC50: read-out: LC50 A549; for IC (TGI): read-out: TGI A549
# Outline: as §1
# HT-29 = experiment: cells; settings: Homo sapiens, HT-29, 48 h; for GI50: read-out: GI50 HT29; for CC50: read-out: LC50 HT29; for IC (TGI): read-out: TGI HT29
# Outline: as §1
# LoVo = experiment: cells; settings: Homo sapiens, LoVo, 48 h
# Outline: as §1
smiles,measurement,setting,value
COc1c(C)cc2c(c1O)[C@H]1N[C@@H](C2)[C@H](C#N)N2C1[C@@H]1SCC(NC(=O)C(F)(F)F)C(=O)OC[C@H]2c2c3c(c(C)c(OC(C)=O)c21)OCO3 (stereo partly drawn) [compound 31],GI50,DU-145,0.444 nM
same,CC50,DU-145,2230 nM
same,IC (TGI),DU-145,0.951 nM
same,GI50,LoVo-Dox; read-out: GI50 LOVO-DOX,9.05 nM
same,CC50,LoVo-Dox; read-out: LC50 LOVO-DOX,7210 nM
same,IC (TGI),LoVo-Dox; read-out: TGI LOVO-DOX,1480 nM
same,GI50,HeLa-APL; read-out: GI50 HELA-APL,0.576 nM
same,CC50,HeLa-APL; read-out: LC50 HELA-APL,9.96 nM
same,IC (TGI),HeLa-APL; read-out: TGI HELA-APL,1.96 nM
same,GI50,IGROV-1; read-out: GI50 IGROV,0.413 nM
same,CC50,IGROV-1; read-out: LC50 IGROV,12.6 nM
same,IC (TGI),IGROV-1; read-out: TGI IGROV,1.07 nM
same,GI50,SK-BR-3; read-out: GI50 SK-BR3,0.396 nM
same,CC50,SK-BR-3; read-out: LC50 SK-BR3,60.7 nM
same,IC (TGI),SK-BR-3; read-out: TGI SK-BR3,1.22 nM
same,GI50,PANC-1; read-out: GI50 PANC-1,0.807 nM
same,CC50,PANC-1; read-out: LC50 PANC-1,1770 nM
same,IC (TGI),PANC-1; read-out: TGI PANC-1,6.68 nM
same,GI50,SK-MEL-28,0.832 nM
same,CC50,SK-MEL-28,8.06 nM
same,IC (TGI),SK-MEL-28,2.54 nM
same,GI50,K-562; read-out: GI50 K562,0.226 nM
same,CC50,K-562; read-out: LC50 K562,126 nM
same,IC (TGI),K-562; read-out: TGI K562,0.792 nM
same,GI50,IGROV-ET; read-out: GI50 IGROV-ET,2.91 nM
same,CC50,IGROV-ET; read-out: LC50 IGROV-ET,2090 nM
same,IC (TGI),IGROV-ET; read-out: TGI IGROV-ET,7.49 nM
same,GI50,HeLa; read-out: GI50 HELA,0.678 nM
same,CC50,HeLa; read-out: LC50 HELA,11.2 nM
same,IC (TGI),HeLa; read-out: TGI HELA,2.04 nM
same,GI50,LNCaP,0.419 nM
same,CC50,LNCaP,90.7 nM
same,IC (TGI),LNCaP,16.3 nM
same,GI50,A-549,1.83 nM
same,CC50,A-549,92.1 nM
same,IC (TGI),A-549,5.97 nM
same,GI50,HT-29,1.97 nM
same,CC50,HT-29,3680 nM
same,IC (TGI),HT-29,16.2 nM
same,GI50,LoVo; read-out: GI50 LOVO,0.688 nM
same,CC50,LoVo; read-out: LC50 LOVO,1820 nM
same,IC (TGI),LoVo; read-out: TGI LOVO,3.49 nM
COc1c(C)cc2c(c1O)[C@H]1N[C@@H](C2)[C@H](O)N2C1[C@@H]1SCC(NC(C)=O)C(=O)OC[C@H]2c2c3c(c(C)c(OC(C)=O)c21)OCO3 (stereo partly drawn) [compound 36],GI50,DU-145,3.58 nM
same,CC50,DU-145,10400 nM
same,IC (TGI),DU-145,9.55 nM
same,GI50,LoVo-Dox; read-out: LOVO-DOX GI50,246 nM
same,CC50,LoVo-Dox; read-out: LOVO-DOX LC50,15600 nM
same,IC (TGI),LoVo-Dox; read-out: LOVO-DOX TGI,1090 nM
same,GI50,HeLa-APL; read-out: HELA-APL GI50,1.85 nM
same,CC50,HeLa-APL; read-out: HELA-APL LC50,10 nM
same,IC (TGI),HeLa-APL; read-out: HELA-APL TGI,4.3 nM
same,GI50,IGROV-1; read-out: IGROV GI50,1.12 nM
same,CC50,IGROV-1; read-out: IGROV LC50,10.4 nM
same,IC (TGI),IGROV-1; read-out: IGROV TGI,3.79 nM
same,GI50,SK-BR-3; read-out: SK-BR3 GI50,2.87 nM
same,CC50,SK-BR-3; read-out: SK-BR3 LC50,15.4 nM
same,IC (TGI),SK-BR-3; read-out: SK-BR3 TGI,6.65 nM
same,GI50,PANC-1; read-out: PANC-1 GI50,2.82 nM
same,CC50,PANC-1; read-out: PANC-1 LC50,2600 nM
same,IC (TGI),PANC-1; read-out: PANC-1 TGI,9.72 nM
same,GI50,SK-MEL-28,1.84 nM
same,CC50,SK-MEL-28,8.71 nM
same,IC (TGI),SK-MEL-28,4.01 nM
same,GI50,K-562; read-out: K562 GI50,0.246 nM
same,CC50,K-562; read-out: K562 LC50,5.11 nM
same,IC (TGI),K-562; read-out: K562 TGI,0.7 nM
same,GI50,IGROV-ET; read-out: IGROV-ET GI50,27.7 nM
same,CC50,IGROV-ET; read-out: IGROV-ET LC50,15600 nM
same,IC (TGI),IGROV-ET; read-out: IGROV-ET TGI,71.7 nM
same,GI50,HeLa; read-out: HELA GI50,1.46 nM
same,CC50,HeLa; read-out: HELA LC50,9.82 nM
same,IC (TGI),HeLa; read-out: HELA TGI,3.85 nM
same,GI50,LNCaP,0.46 nM
same,CC50,LNCaP,5.06 nM
same,IC (TGI),LNCaP,1.37 nM
same,GI50,A-549,5.56 nM
same,CC50,A-549,83.8 nM
same,IC (TGI),A-549,22.9 nM
same,GI50,HT-29,2.73 nM
same,CC50,HT-29,15600 nM
same,IC (TGI),HT-29,11.7 nM
same,GI50,LoVo; read-out: LOVO GI50,2.12 nM
same,CC50,LoVo; read-out: LOVO LC50,15.6 nM
same,IC (TGI),LoVo; read-out: LOVO TGI,5.91 nM
